Measurements published in patent US20160122340A1, “HISTONE DEACETYLASE INHIBITORS BASED ON DERIVATIVES OF TRICYCLIC POLYHYDROACRIDINE AND ANALOGS POSSESSING FUSED SATURATED FIVE-AND-SEVEN-MEMBERED RINGS” (QUIMATRYX, S.L., priority 2013, published 2016).

Key:
[1] = test system: T1, Nuclear Extract from HeLa Cells; test: HeLa nuclear extract HDAC activity inhibition; format: biochemical, human
T1 construct: 25 ng/μl Nuclear Extract from HeLa Cells: Prepared by high salt extraction of HeLa nuclei (human cervical cancer cell line)
Method: (§1) In Vitro Inhibitory Activity of Histone Deacetylase: Human Isoforms HDAC1, 2, 3, 4, 5, 6, 7, 8, 9, 10 and 11 and HeLa Cell Line Nuclear Extract (IC50 Data)
(§2) All HDAC assays were performed using acetylated AMC-labeled peptide substrate: • Substrate for isoforms HDAC1, 2, 3, 6, 10, 11 and HeLa nuclear extract assays: Acetylated fluorogenic peptide from p53 residues 379-382 (RHKKAc). • Substrate for isoforms HDAC 4, 5, 7, 9: Fluorogenic Boc-L-Lys(ε-trifluoroacetyl)-AMC. • Substrate for HDAC8 assays: Acetylated fluorogenic peptide from p53 residues 379-382 (RHKAcKAc).
[…] The reactions were carried out in a 96-well microplate for fluorometry in a 50 μl reaction volume. After the deacetylation reaction, Fluor-de-Lys-Developer (BioMol Cat. # KI-105) was added to each well to digest the deacetylated substrate, thus producing the fluorescent signal. The reaction was allowed to develop for 45 minutes at 30° C. with 5% CO2; then the fluorescent signal was measured with an excitation wavelength at 360 nm and an emission wavelength at 460 nm in a microplate-reading fluorometer (GeminiXS; Molecular Devices, Sunnyvale, Calif.). A curve of Deacetylated Standard (Biomol, Cat. # KI-142; made from 100 μM with 1:2 dilution and 10-doses, 6 μl) allowed the conversion of fluorescent signal into micromoles of deacetylated product. All experiments were performed in triplicate. IC50 was calculated by fitting the experimental data to a dose-response curve. DMSO was used as negative control; Trichostatin A (Biomol Cat. # GR-309) was used as positive control inhibitor.

Human HDAC8 = molecular target: T2, Human HDAC8 (Homo sapiens, UniProt Q9BY41); test: In vitro HDAC8 inhibition, fluorogenic peptide substrate; format: biochemical; settings: read-out: IC50 (μM) HDAC-8
T2 construct: Full length, MW=42 kDa, expressed in an E. coli expression system; purchased BioMol SE-145; host or cells: E. coli
T2 sequence (Q9BY41 1-377): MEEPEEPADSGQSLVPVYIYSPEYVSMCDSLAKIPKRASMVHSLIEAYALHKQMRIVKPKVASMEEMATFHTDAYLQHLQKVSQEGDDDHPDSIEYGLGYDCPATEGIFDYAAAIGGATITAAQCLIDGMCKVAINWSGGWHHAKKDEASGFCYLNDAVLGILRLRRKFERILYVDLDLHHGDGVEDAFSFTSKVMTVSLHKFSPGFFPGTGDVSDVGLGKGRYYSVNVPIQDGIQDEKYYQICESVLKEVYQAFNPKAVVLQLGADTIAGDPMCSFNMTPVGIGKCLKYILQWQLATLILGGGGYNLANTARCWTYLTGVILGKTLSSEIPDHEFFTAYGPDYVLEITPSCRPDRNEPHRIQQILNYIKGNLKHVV
Method: as §1, §2
(§3) 50 μM of substrate peptide (see ‘substrate peptides’ section above) and an optimal concentration of the corresponding enzyme (see ‘enzymes’ section above) in the assay buffer and 1% final concentration of DMSO were incubated in the presence of gradient concentrations of inhibitors (10-dose IC50 mode with 3-fold serial dilution) at 30° C. for 2 h. The reactions were carried out in a 96-well microplate for fluorometry in a 50 μl reaction volume. After the deacetylation reaction, Fluor-de-Lys-Developer (BioMol Cat. # KI-105) was added to each well to digest the deacetylated substrate, thus producing the fluorescent signal. The reaction was allowed to develop for 45 minutes at 30° C. with 5% CO2; then the fluorescent signal was measured with an excitation wavelength at 360 nm and an emission wavelength at 460 nm in a microplate-reading fluorometer (GeminiXS; Molecular Devices, Sunnyvale, Calif.). A curve of Deacetylated Standard (Biomol, Cat. # KI-142; made from 100 μM with 1:2 dilution and 10-doses, 6 μl) allowed the conversion of fluorescent signal into micromoles of deacetylated product. All experiments were performed in triplicate. IC50 was calculated by fitting the experimental data to a dose-response curve. DMSO was used as negative control; Trichostatin A (Biomol Cat. # GR-309) was used as positive control inhibitor.

Human HDAC2 = molecular target: T3, Human HDAC2 (Homo sapiens, UniProt Q92769); test: In vitro HDAC2 inhibition, fluorogenic peptide substrate; format: biochemical; settings: read-out: IC50 (μM) HDAC-2
T3 construct: Full length with C-terminal His tag, MW=60 kDa; His (C); purchased BioMol SE-500; host or cells: baculovirus / Sf9 cells
Method: as §1, §2, §3

Human HDAC3/NcoR2 = molecular target: T4, Human HDAC3/NcoR2 (Homo sapiens, UniProt O15379); test: In vitro HDAC3 inhibition, fluorogenic peptide substrate; format: biochemical; settings: read-out: IC50 (μM) HDAC-3
T4 construct: Complex of human HDAC3, full length with C-terminal His tag, MW=49.7 kDa; His (C); purchased BioMol SE-507; host or cells: baculovirus expression system
Method: as §1, §2, §3

Human HDAC10 = molecular target: T5, Human HDAC10 (Homo sapiens, UniProt Q969S8); test: In vitro HDAC10 inhibition, fluorogenic peptide substrate; format: biochemical; settings: read-out: IC50 (μM) HDAC-10
T5 construct: Amino acids 1-631 with Nterminal GST tag, MW=96 kDa; GST (N); purchased BioMol SE-559; host or cells: baculovirus / Sf9 cells
T5 sequence (Q969S8 1-631): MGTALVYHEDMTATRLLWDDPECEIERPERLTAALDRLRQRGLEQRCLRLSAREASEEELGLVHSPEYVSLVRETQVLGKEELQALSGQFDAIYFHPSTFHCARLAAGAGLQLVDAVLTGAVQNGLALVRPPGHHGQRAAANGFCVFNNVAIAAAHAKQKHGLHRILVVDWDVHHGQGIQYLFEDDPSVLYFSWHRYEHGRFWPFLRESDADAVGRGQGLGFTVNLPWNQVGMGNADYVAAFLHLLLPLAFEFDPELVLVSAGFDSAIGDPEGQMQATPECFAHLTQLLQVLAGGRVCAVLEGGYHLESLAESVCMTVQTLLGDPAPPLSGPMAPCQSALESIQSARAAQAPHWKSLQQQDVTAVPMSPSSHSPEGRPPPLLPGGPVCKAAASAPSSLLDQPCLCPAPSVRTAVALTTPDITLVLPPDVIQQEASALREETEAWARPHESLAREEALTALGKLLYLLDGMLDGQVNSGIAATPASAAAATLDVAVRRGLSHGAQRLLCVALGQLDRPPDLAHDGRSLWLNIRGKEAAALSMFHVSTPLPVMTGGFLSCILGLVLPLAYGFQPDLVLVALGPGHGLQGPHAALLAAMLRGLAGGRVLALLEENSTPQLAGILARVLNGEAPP
Method: as §1, §2, §3

T3 sequence (Q92769 whole entry): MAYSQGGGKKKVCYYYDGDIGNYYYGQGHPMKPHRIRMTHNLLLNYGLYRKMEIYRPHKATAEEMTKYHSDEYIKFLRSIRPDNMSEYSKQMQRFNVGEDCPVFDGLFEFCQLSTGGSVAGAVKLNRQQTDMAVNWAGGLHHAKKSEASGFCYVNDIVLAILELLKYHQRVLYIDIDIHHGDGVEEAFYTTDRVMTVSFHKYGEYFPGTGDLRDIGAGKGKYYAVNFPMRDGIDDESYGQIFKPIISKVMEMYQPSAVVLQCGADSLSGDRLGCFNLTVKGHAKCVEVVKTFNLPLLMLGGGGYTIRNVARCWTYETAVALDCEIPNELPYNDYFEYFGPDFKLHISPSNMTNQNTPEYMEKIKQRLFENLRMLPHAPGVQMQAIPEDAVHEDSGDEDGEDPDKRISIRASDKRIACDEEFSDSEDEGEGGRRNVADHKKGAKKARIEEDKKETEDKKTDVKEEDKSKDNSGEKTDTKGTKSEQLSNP
T4 sequence (O15379 whole entry): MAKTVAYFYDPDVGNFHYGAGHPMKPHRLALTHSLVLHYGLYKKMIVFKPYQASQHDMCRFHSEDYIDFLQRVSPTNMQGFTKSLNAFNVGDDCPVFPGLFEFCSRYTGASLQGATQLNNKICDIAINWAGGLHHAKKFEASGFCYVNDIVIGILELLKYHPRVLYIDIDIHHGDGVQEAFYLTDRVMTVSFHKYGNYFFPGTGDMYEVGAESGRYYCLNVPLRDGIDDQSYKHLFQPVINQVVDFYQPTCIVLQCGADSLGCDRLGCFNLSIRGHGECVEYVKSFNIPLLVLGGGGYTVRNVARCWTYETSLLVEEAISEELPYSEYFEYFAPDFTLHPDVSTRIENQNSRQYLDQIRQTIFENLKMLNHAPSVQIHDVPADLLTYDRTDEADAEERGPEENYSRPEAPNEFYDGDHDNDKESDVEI
T4 sequence (Q9Y618 395-489 partner limits assumed): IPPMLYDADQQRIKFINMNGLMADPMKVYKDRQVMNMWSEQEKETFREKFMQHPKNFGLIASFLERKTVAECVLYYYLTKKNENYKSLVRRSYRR

IC50 [1] [µM]	IC50 (Human HDAC8) [µM]	IC50 (Human HDAC2) [µM]	IC50 (Human HDAC3/NcoR2) [µM]	IC50 (Human HDAC10) [µM]	Compound
0.066	0.59	6.09	2.84	5.76	O=C(CCCCCNc1c2c(nc3ccccc13)CCCC2)NO [Example 1, N-hydroxy-6-[(1,2,3,4-tetrahydroacridin-9-yl)amino]hexanamide]
0.023	0.53	0.75	0.42	0.71	O=C(CCCCCCNc1c2c(nc3ccccc13)CCCC2)NO [Example 2, N-hydroxy-7-[(1,2,3,4-tetrahydroacridin-9-yl)amino]heptanamide]
0.019	1.28	0.77	0.36	0.51	O=C(CCCCCCNc1c2c(nc3ccccc13)CCC2)NO [Example 3, 7-[(2,3-dihydro-1H-cyclopenta[b]quinolin-9-yl)amino]-N-hydroxyheptanamide]
0.038	0.84	1.92	0.74	1.13	O=C(CCCCCCNc1c2c(nc3ccccc13)CCCCC2)NO [Example 4, N-hydroxy-7-[(7,8,9,10-tetrahydro-6H-cyclohepta[b]quinolin-11-yl)amino]heptanamide]
0.033	1.52	1.84	0.66	1.46	COc1cccc2c(NCCCCCCC(=O)NO)c3c(nc12)CCCC3 [Example 5, N-hydroxy-7-[(5-methoxy-1,2,3,4-tetrahydroacridin-9-yl)amino]heptanamide]
0.12	1.44	4.46	2.44	4.02	O=C(CCCCCCNc1c2c(nc3ncccc13)CCCC2)NO [Example 7, N-hydroxy-7-[(6,7,8,9-tetrahydrobenzo[b][1,8]naphthyridin-5-yl)amino]heptanamide]
0.095	1.09	2.41	1.88	2.02	O=C(CCCCCCNc1c2c(nc3cnccc13)CCCC2)NO [Example 8, N-hydroxy-7-[(6,7,8,9-tetrahydrobenzo[b][1,7]naphthyridin-5-yl)amino]heptanamide]
0.85	–	> 5	> 5	> 5	O=C(CCCCCNC(=O)c1c2c(nc3ccccc13)CCCC2)NO [Example 10, N-[6-(hydroxyamino)-6-oxohexyl]-1,2,3,4-tetrahydroacridine-9-carboxamide]
0.42	0.21	8.48	3.62	6.89	O=C(CCCCCCNC(=O)c1c2c(nc3ccccc13)CCCC2)NO [Example 11, N-[7-(hydroxyamino)-7-oxoheptyl]-1,2,3,4-tetrahydroacridine-9-carboxamide]
